Assay results: PubChem BioAssay (NCI)
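Here, GI50 denotes the concentration required for 50% inhibition of growth. Definition used: TGI = concentration required for complete inhibition of growth.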

Columns and labels:
Assay in all cases: inhibition of tumour cell growth, NCI panel, 384-well format
NCI-H322M lung = test system: NCI-H322M lung
UACC-257 melanoma = test system: UACC-257 melanoma
UO-31 renal = test system: UO-31 renal
SK-OV-3 ovarian = test system: SK-OV-3 ovarian
SF-268 CNS = test system: SF-268 CNS
U251 glioblastoma = test system: U251 glioblastoma
OVCAR-4 ovarian = test system: OVCAR-4 ovarian
SK-MEL-28 melanoma = test system: SK-MEL-28 melanoma
NCI-H522 lung = test system: NCI-H522 lung
DU-145 prostate = test system: DU-145 prostate
MALME-3M melanoma = test system: MALME-3M melanoma
SNB-75 CNS = test system: SNB-75 CNS
BT-549 breast = test system: BT-549 breast
KM12 colon = test system: KM12 colon
NCI-H226 lung = test system: NCI-H226 lung
NCI/ADR-RES ovarian = test system: NCI/ADR-RES ovarian
IGROV1 ovarian = test system: IGROV1 ovarian
RXF 393 renal = test system: RXF 393 renal
OVCAR-5 ovarian = test system: OVCAR-5 ovarian
MDA-MB-231 breast = test system: MDA-MB-231 breast
LOX IMVI melanoma = test system: LOX IMVI melanoma
K-562 leukemia = test system: K-562 leukemia
RPMI-8226 leukemia = test system: RPMI-8226 leukemia
HS 578T breast = test system: HS 578T breast
SN12C renal = test system: SN12C renal
CAKI-1 renal = test system: CAKI-1 renal
SK-MEL-5 melanoma = test system: SK-MEL-5 melanoma
EKVX NSCLC = test system: EKVX NSCLC
HCT-15 colon = test system: HCT-15 colon
SK-MEL-2 melanoma = test system: SK-MEL-2 melanoma
HL-60(TB) leukemia = test system: HL-60(TB) leukemia
T-47D breast = test system: T-47D breast
UACC-62 melanoma = test system: UACC-62 melanoma
HCT-116 colon = test system: HCT-116 colon
SNB-19 CNS = test system: SNB-19 CNS
TK-10 renal = test system: TK-10 renal
PC-3 prostate = test system: PC-3 prostate
MOLT-4 leukemia = test system: MOLT-4 leukemia
SF-539 CNS = test system: SF-539 CNS
COLO 205 colon = test system: COLO 205 colon
CCRF-CEM leukemia = test system: CCRF-CEM leukemia
A549 NSCLC = test system: A549 NSCLC
NCI-H460 NSCLC = test system: NCI-H460 NSCLC
A498 renal = test system: A498 renal
OVCAR-3 ovarian = test system: OVCAR-3 ovarian
SW-620 colon = test system: SW-620 colon
MDA-MB-468 breast = test system: MDA-MB-468 breast
SF-295 CNS = test system: SF-295 CNS
MDA-MB-435 melanoma = test system: MDA-MB-435 melanoma
HOP-62 NSCLC = test system: HOP-62 NSCLC
HT29 colon = test system: HT29 colon
786-0 renal = test system: 786-0 renal

`CC[C@H](CO)Nc1nc(NCc2ccccc2)c2ncn(C(C)C)c2n1` was tested, and the GI50 (NCI-H322M lung) was 19.1 µM, the TGI (NCI-H322M lung) was 49.9 µM and the GI50 (UACC-257 melanoma) was 21.2 µM. The TGI (UACC-257 melanoma) was 59.5 µM, the GI50 (UO-31 renal) was 20.9 µM and the TGI (UO-31 renal) was 45 µM. For the same compound, the GI50 (SK-OV-3 ovarian) was 36.5 µM, the TGI (SK-OV-3 ovarian) was > 100 µM and the GI50 (SF-268 CNS) was 15.3 µM. For the same compound, the TGI (SF-268 CNS) was 35.6 µM, the GI50 (U251 glioblastoma) was 28.2 µM and the TGI (U251 glioblastoma) was > 100 µM. The GI50 (OVCAR-4 ovarian) was 32 µM, the TGI (OVCAR-4 ovarian) was > 100 µM and the GI50 (SK-MEL-28 melanoma) was 16.3 µM. For the same compound, the TGI (SK-MEL-28 melanoma) was 36.4 µM, the GI50 (NCI-H522 lung) was 18.3 µM and the TGI (NCI-H522 lung) was 50.6 µM. For the same compound, the GI50 (DU-145 prostate) was 20.9 µM, the TGI (DU-145 prostate) was 56.3 µM and the GI50 (MALME-3M melanoma) was 24.8 µM. The TGI (MALME-3M melanoma) was 57.8 µM, the GI50 (SNB-75 CNS) was 16.6 µM and the TGI (SNB-75 CNS) was 35.4 µM. The GI50 (BT-549 breast) was 15.9 µM, the TGI (BT-549 breast) was 33.6 µM and the GI50 (KM12 colon) was 18.8 µM. It also gave a TGI (KM12 colon) of 43.6 µM, a GI50 (NCI-H226 lung) of 22.4 µM and a TGI (NCI-H226 lung) of 68.3 µM. For the same compound, the GI50 (NCI/ADR-RES ovarian) was 22.3 µM, the TGI (NCI/ADR-RES ovarian) was 75.2 µM and the GI50 (IGROV1 ovarian) was 26.5 µM. It also gave a TGI (IGROV1 ovarian) of 95.8 µM, a GI50 (RXF 393 renal) of 14.1 µM and a TGI (RXF 393 renal) of 28.2 µM. The GI50 (OVCAR-5 ovarian) was 24.8 µM, the TGI (OVCAR-5 ovarian) was > 100 µM and the GI50 (MDA-MB-231 breast) was 22.4 µM. It also gave a TGI (MDA-MB-231 breast) of 62.9 µM, a GI50 (LOX IMVI melanoma) of 19.3 µM and a TGI (LOX IMVI melanoma) of 37.5 µM. The GI50 (K-562 leukemia) was 36.1 µM, the TGI (K-562 leukemia) was > 100 µM and the GI50 (RPMI-8226 leukemia) was 17 µM. The TGI (RPMI-8226 leukemia) was 31.6 µM, the GI50 (HS 578T breast) was 15.2 µM and the TGI (HS 578T breast) was 32.3 µM. It also gave a GI50 (SN12C renal) of 21.1 µM, a TGI (SN12C renal) of 52.1 µM and a GI50 (CAKI-1 renal) of 24 µM. It also gave a TGI (CAKI-1 renal) of 77.4 µM, a GI50 (SK-MEL-5 melanoma) of 15.4 µM and a TGI (SK-MEL-5 melanoma) of 31.8 µM. It also gave a GI50 (EKVX NSCLC) of 23 µM, a TGI (EKVX NSCLC) of 59.6 µM and a GI50 (HCT-15 colon) of 19.4 µM. It also gave a TGI (HCT-15 colon) of 60.3 µM, a GI50 (SK-MEL-2 melanoma) of 36.7 µM and a TGI (SK-MEL-2 melanoma) of 63.6 µM. The GI50 (HL-60(TB) leukemia) was 14.8 µM, the TGI (HL-60(TB) leukemia) was 28.1 µM and the GI50 (T-47D breast) was 24.9 µM. For the same compound, the TGI (T-47D breast) was 76.1 µM, the GI50 (UACC-62 melanoma) was 13.7 µM and the TGI (UACC-62 melanoma) was 27.3 µM. The GI50 (HCT-116 colon) was 16.4 µM, the TGI (HCT-116 colon) was 35.3 µM and the GI50 (SNB-19 CNS) was 26.8 µM. The TGI (SNB-19 CNS) was > 100 µM, the GI50 (TK-10 renal) was 25 µM and the TGI (TK-10 renal) was 83.6 µM. It also gave a GI50 (PC-3 prostate) of 21 µM, a TGI (PC-3 prostate) of 56.1 µM and a GI50 (MOLT-4 leukemia) of 17.3 µM. The TGI (MOLT-4 leukemia) was 32.1 µM, the GI50 (SF-539 CNS) was 19.1 µM and the TGI (SF-539 CNS) was 40.3 µM. For the same compound, the GI50 (COLO 205 colon) was 21.3 µM, the TGI (COLO 205 colon) was 52.8 µM and the GI50 (CCRF-CEM leukemia) was 16.8 µM. The TGI (CCRF-CEM leukemia) was 33.3 µM, the GI50 (A549 NSCLC) was 27.5 µM and the TGI (A549 NSCLC) was > 100 µM. For the same compound, the GI50 (NCI-H460 NSCLC) was 16.2 µM, the TGI (NCI-H460 NSCLC) was 31.8 µM and the GI50 (A498 renal) was 27.2 µM. It also gave a TGI (A498 renal) of 82.1 µM, a GI50 (OVCAR-3 ovarian) of 17.2 µM and a TGI (OVCAR-3 ovarian) of 43.9 µM. It also gave a GI50 (SW-620 colon) of 29.5 µM, a TGI (SW-620 colon) of 89.9 µM and a GI50 (MDA-MB-468 breast) of 19.8 µM. It also gave a TGI (MDA-MB-468 breast) of 37.9 µM, a GI50 (SF-295 CNS) of 25.2 µM and a TGI (SF-295 CNS) of 78.6 µM. The GI50 (MDA-MB-435 melanoma) was 23.2 µM, the TGI (MDA-MB-435 melanoma) was 64.6 µM and the GI50 (HOP-62 NSCLC) was 21.8 µM. For the same compound, the TGI (HOP-62 NSCLC) was 62.2 µM, the GI50 (HT29 colon) was 20.1 µM and the TGI (HT29 colon) was 47.2 µM. It also gave a GI50 ([…]-0 renal) of 22.7 µM and a TGI (786-0 renal) of 61.5 µM.
